What is called solubility is the dissolved amount per volume that the medium holds. One may read the IC50 as the concentration at which inhibition is half-maximal. A lower IC50 goes with inhibition by little substance.

This is an account of results in patent US11766443B2, “Cyclopentathiophene carboxamide derivatives as platelet activating factor receptor antagonists” (Boehringer Ingelheim International GmbH, priority 2021, dated 2023).

A short description of series [1]: aqueous solubility in buffer (from DMSO stock, 24 h shaking, LC-UV). The following applies: pH 2.2, aqueous buffer, kinetic from dmso stock.
Experimental: (§1) The aqueous solubility of the test compound is determined by comparing the amount dissolved in buffer to the amount in an ACN/water (1/1) solution. Starting from a 10 mM DMSO stock solution aliquots are diluted with ACN/water (1/1) or buffer, respectively. After 24 h of shaking, the solutions are filtrated and analyzed by LC-UV. The amount dissolved in buffer is compared to the amount in the ACN solution.
(§2) Solubility will usually be measured from 0.001 to 0.125 mg/mL at a DMSO concentration of 2.5%. If more than 90% of the compound is dissolved in buffer, the value is marked with “>”.
A short description of series [2]: chemical stability in acidic aqueous media (pH ca. 1.2), HPLC recovery. The class given is physicochemical. The settings on record: acetonitrile/0.1 M aqueous HCl 2:3, pH ca. 1.2, 37° C. How it is done: Degradation studies are used to simulate chemical stability of compounds in the acidic part of the gastro intestinal tract. The compounds of the invention show high chemical stability in acidic aqueous media (pH value ca. 1.2) what makes their application as medical drugs to treat human diseases less restricted and troublesome.
The chemical stability of the compounds of the invention at pH value of ca. 1.2 is determined as follows: Compound is dissolved in an HPLC vial in a mixture of acetonitrile/0.1 M aqueous HCl (ratio: 2:3; pH ca. 1.2) to get a concentration of approximately 0.25 mg/ml. The vial is then transferred into an HPLC autosampler system and maintained at a temperature of 37° C. A first sample is taken and injected immediately into a standard HPLC system with a UV DAD detector. A further samples is injected after 24 hours. Amount of degraded compound is measured by determining the recovery rate of compound [%] for the 24 h injection using an HPLC standard gradient method. Therefore the peak area of the main peak for the first injection (AUt0) is determined and set as 100%. Peak area of the main peak is determined also for the 24 h injection (AU24 h) and expressed as fraction of (AU24 h)/(AUt0)[%].

In series [3] the target is T1, human PAFR (Homo sapiens, UniProt P25105).
T1 construct: expressed in transfected cells; host or cells: HEK293
T1 sequence (P25105 whole entry): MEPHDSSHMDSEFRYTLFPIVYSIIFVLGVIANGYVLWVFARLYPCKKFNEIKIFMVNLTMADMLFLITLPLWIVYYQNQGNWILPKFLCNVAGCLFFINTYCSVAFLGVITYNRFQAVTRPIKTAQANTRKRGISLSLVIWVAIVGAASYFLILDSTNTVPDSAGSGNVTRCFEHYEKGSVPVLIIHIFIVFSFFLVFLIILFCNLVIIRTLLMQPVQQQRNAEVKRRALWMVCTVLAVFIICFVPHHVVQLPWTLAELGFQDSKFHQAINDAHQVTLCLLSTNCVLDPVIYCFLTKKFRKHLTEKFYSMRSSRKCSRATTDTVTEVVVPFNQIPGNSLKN
Nature of the series: cellular HTRF IP1 endpoint assay: inhibition of PAFR activation by PAF C-16 ligand. The class given is cell-based. The following applies: HEK293 cells overexpressing human PAFR; PAF ligand 11 nM. On the procedure: The ability of compounds of formula (I.0) to inhibit the activation of the PAF receptor (PAFR) by the PAF C-16 ligand (PAF) is determined using the following cellular HTRF IP1 assay (IP1 Gq assay kit from Cisbio, Cat. no.: 62IP1APEJ) in assay buffer (1×HBSS, 20 mM Hepes, pH 7.4, 50 mM LiCl and containing 0.1% (w/v) BSA):
HEK293 cells overexpressing human PAFR (produced in-house) are seeded into a Poly-D-Lysine coated 384 well white cell culture microtiter assay plate with lid (15.000 cells per well). Subsequently, the plates are incubated over night at 37° C./5% CO2. On the next day, cells are being washed and subsequently, various concentrations of the test compounds (compounds in 100% DMSO; final concentration of DMSO in wells is 1%) are added to the assay plate via Echo 555 acoustic liquid handler. Plates are then incubated with lid for 90 minutes at 37° C./5% CO2. Thereafter, PAF ligand (Cayman Chemical Company, Item no.: 60900) is added at a final concentration of 11 nM. Plates are then incubated with lid for 60 minutes at 37° C./5% CO2. Then, 5 μl per well of Anti-IP1-Anti body-Cryptate solution and 5 μL per well of IP1-d2 solution are added to all wells of the plate and the plate is incubated for another 60 minutes light protected at room temperature. The emissions at 620 nm and 665 nm (Excitation wavelength: 320 nm) are measured using an Envision Reader (PerkinElmer).

Series [4] is described as follows: physchem. The following applies: pH 2.2, aqueous buffer, kinetic from dmso stock.
Experimental: as §1, §2

In brackets after ≈: the same amount, converted by molar mass.

Consider `Cc1nnc2n1-c1sc3c(c1[C@H](c1ccccc1Cl)NC2)C[C@H](C(=O)N1CCOCC1)C3` [Example 2, (9R,13S)-9-(2-Chlorophenyl)-3-methyl-13-(morpholine-4-carbonyl)-16-thia-2,4,5,8-tetraazatetracyclo[8.6.0.0^2,6.0^11,15]-hexadeca-1(10),3,5,11(15)-tetraene], for which the solubility at 24 h in series [1] was greater than 117 µg/mL. The “Amount of degradation after 24 h” value in series [2] was found to be 1%. The molecule also displayed an IC50 in series [3] of 30 nM.
For `Cc1nnc2n1-c1sc3c(c1[C@H](c1ccccc1Cl)NC2)C[C@H](C(=O)NCCOC(F)(F)F)C3` [Example 17] the same measures were greater than 114 µg/mL, 2% and 2.8 nM.
For `CCCNC(=O)[C@@H]1Cc2sc3c(c2C1)[C@H](c1ccccc1Cl)NCc1nnc(C)n1-3` [Example 19] the same measures were greater than 111 µg/mL, 3% and 3 nM.
For `Cc1nnc2n1-c1sc3c(c1[C@H](c1ccccc1Cl)NC2)C[C@H](C(=O)N1CC2CC1C2)C3` [Example 21] the same measures were greater than 105 µg/mL, 1% and 9.1 nM.
In series [1], `Cc1nnc2n1-c1sc3c(c1[C@H](c1ccccc1Cl)NC2)C[C@H](C(=O)N1CCOC(C)(C)C1)C3` [Example 26] came in with a solubility at 24 h greater than 136 µg/mL. Also, the “Amount of degradation after 24 h” value in series [2] is 2.5%^. For the same molecule, the IC50 in series [3] came out at 4.9 nM.
The matching figures for `Cc1nnc2n1-c1sc3c(c1[C@H](c1ccccc1Cl)NC2)C[C@H](C(=O)NC1CCC1)C3` [Example 28]: greater than 142 µg/mL, 0.5%^ and 1.7 nM.
`Cc1nnc2n1-c1sc3c(c1[C@H](c1ccccc1Cl)NC2)C[C@H](C(=O)NC12CC(C1)C2)C3` [Example 51] yielded a solubility at 24 h in series [1] greater than 116 µg/mL. Also, in series [3], the IC50 was 2.2 nM.
For `COc1ccc(Cl)c(C2NCc3nnc(C)n3-c3sc4c(c32)CC(C(=O)N2CCOCC2)C4)c1` (stereo not drawn) [Example 62, 9-(2-Chloro-5-methoxyphenyl)-3-methyl-13-(morpholine-4-carbonyl)-16-thia-2,4,5,8-tetraazatetracyclo-[8.6.0.0^2,6.0^11,15]hexadeca-1(10),3,5,11(15)-tetraene] the same measures were greater than 118 µg/mL and 94 nM.
The matching figures for `Cc1ccccc1[C@@H]1NCc2nnc(C)n2-c2sc3c(c21)C[C@H](C(=O)N1CCOCC1)C3` [Example 64, (9S,13S)-3-methyl-9-(2-methylphenyl)-13-(morpholine-4-carbonyl)-16-thia-2,4,5,8-tetraazatetracyclo[8.6.0.0^2,6.0^11,15]-hexadeca-1(10),3,5,11(15)-tetraene]: greater than 108 µg/mL and 210 nM.
In the case of `Cc1nnc2n1-c1sc3c(c1C(c1ccccc1Cl)NC2)C[C@H](C(=O)NC(C)(C)CO)C3` (stereo partly drawn) [Example 65, (13S)-9-(2-Chlorophenyl)-N-(1-hydroxy-2-methylpropan-2-yl)-3-methyl-16-thia-2,4,5,8-tetraazatetracyclo-[8.6.0.0^2,6.0^11,15]hexadeca-1(10),3,5,11(15)-tetraene-13-carboxamide], the solubility at 24 h in series [1] was greater than 147 µg/mL. Moreover, in series [3], the IC50 stood at 11 nM.
Regarding `Cc1nnc2n1-c1sc3c(c1C(c1ccccc1Cl)NC2)CC(C(=O)N1CCCC2(CC2)C1)C3` (stereo not drawn) [Example 66, 13-{5-Azaspiro[2.5]octane-5-carbonyl}-9-(2-chlorophenyl)-3-methyl-16-thia-2,4,5,8-tetraazatetracyclo-[8.6.0.0^2,6.0^11,15]hexadeca-1(10),3,5,11(15)-tetraene], the solubility at 24 h in series [4] was greater than 124 µg/mL. The same molecule gave a half-inhibitory concentration (IC50) in series [3] of 2.7 nM.
As to `CCc1nnc2n1-c1sc3c(c1C(c1ccccc1Cl)NC2)CC(C(=O)N1CCOCC1)C3` (stereo not drawn) [Example 67], the solubility at 24 h in series [1] is greater than 121 µg/mL. In series [3], this molecule displayed a half-maximal inhibitory concentration (IC50) of 73 nM.
In series [1], `CCc1nnc2n1-c1sc3c(c1[C@@H](c1ccccc1Cl)NC2)C[C@H](C(=O)N1CCOCC1)C3` [Example 68] had a solubility at 24 h greater than 116 µg/mL. For the same molecule, the IC50 in series [3] was greater than 999 nM.
Molecule `CCc1nnc2n1-c1sc3c(c1[C@H](c1ccccc1Cl)NC2)C[C@H](C(=O)N1CCOCC1)C3` [Example 69] displayed a solubility at 24 h in series [1] greater than 121 µg/mL. Besides, in series [3], 35 nM corresponded to half-maximal inhibition (IC50).
The matching figures for `CCCN(CCC)C(=O)[C@@H]1Cc2sc3c(c2C1)[C@@H](c1ccccc1Cl)NCc1nnc(C)n1-3` [Example 72, (9S,13S)-9-(2-Chlorophenyl)-3-methyl-N,N-dipropyl-16-thia-2,4,5,8-tetraazatetracyclo[8.6.0.0^2,6.0^11,15]hexadeca-1(10),3,5,11(15)-tetraene-13-carboxamide]: greater than 101 µg/mL and 8.1 nM.
Consider `CCCN(CCC)C(=O)[C@@H]1Cc2sc3c(c2C1)[C@H](c1ccccc1Cl)NCc1nnc(C)n1-3` [Example 73, (9R,13S)-9-(2-chlorophenyl)-3-methyl-N,N-dipropyl-16-thia-2,4,5,8-tetraazatetracyclo[8.6.0.0^2,6.0^11,15]hexadeca-1(10),3,5,11(15)-tetraene-13-carboxamide], for which the solubility at 24 h in series [1] is greater than 110 µg/mL. The molecule also gave an IC50 in series [3] of 0.7 nM.
The matching figures for `Cc1nnc2n1-c1sc3c(c1C(c1ccccc1)NC2)CC(C(=O)N1CCOCC1)C3` (stereo not drawn) [Example 74]: greater than 104 µg/mL and 252 nM.
For `O=C(C1Cc2sc3c(c2C1)C(c1ccccc1Cl)NCc1nnc(C2CC2)n1-3)N1CCOCC1` (stereo not drawn) [Example 81, 9-(2-Chlorophenyl)-3-cyclopropyl-13-(morpholine-4-carbonyl)-16-thia-2,4,5,8-tetraazatetracyclo[8.6.0.0^2,6.0^11,15]hexadeca-1(10),3,5,11(15)-tetraene] the same measures were 68 µg/mL (≈ 137 µM) and 224 nM.
